Source: ChEMBL document CHEMBL1133293, “Synthesis of a water-soluble prodrug of entacapone” (Bioorg Med Chem Lett, 2000)
In brackets after ≈: the same amount, converted by molar mass.

Legend:
[1] = Half life period in rabbit liver homogenate; assay type: ADME, tissue-based, Oryctolagus cuniculus
[2] = Solubility at pH 7.4; assay type: physicochemical; settings: buffer
[3] = Solubility at pH 1.2; assay type: physicochemical; settings: buffer
[4] = Half life period t pH 7.4 at 37 degree Centigrade; assay type: ADME

| half-life [1] [min] | solubility [2] [mg/mL] | solubility [3] [mg/mL] | half-life [4] [days] | SMILES |
| --- | --- | --- | --- | --- |
| 58 | 1.75 (≈ 5730 µM) | 0.017 (≈ 55.7 µM) | – | CCN(CC)C(=O)/C(C#N)=C/c1cc(O)c(O)c([N+](=O)[O-])c1 [ENTACAPONE] |
| 58 | – | – | – | CCN(CC)C(=O)C(C#N)=Cc1cc(O)c(O)c([N+](=O)[O-])c1 |
| – | 30 | 30 | 92.8 | CCN(CC)C(=O)/C(C#N)=C/c1cc(OP(=O)([O-])[O-])c([O-])c([N+](=O)[O-])c1.[Na+].[Na+].[Na+] |
